Laboratory results published in patent publication US20250319139A1, “METHODS FOR TREATING NEUROINFLAMMATION” (University of Virginia Patent Foundation, priority 2021, published 2025).

Assays:
Format in all cases: in vivo, mouse
[1] = tested on: C3; assay: C3 in the hippocampus by ELISA
Protocol: IL-1β, IL-6, C3 and GDNF in the hippocampus were detected by using ELISA kits. For testing the IL-1β, IL-6 and GDNF, brain tissues were homogenized on ice in the RIPA buffer containing 25 mM Tris-HCl with pH 7.6, 150 mM NaCl, 1% sodium deoxycholate, 0.1% SDS and a protease inhibitor cocktail containing 10 mg/ml aproteinin, 5 mg/ml peptastin, 5 mg/ml leupetin and 1 mM phenylmethane sulfonylfluoride. For C3 testing, brain tissues were homogenized on ice in the PTR buffer (supplied in the kit). The supernatant was collected for ELISA detection after the homogenate was centrifuged at 13,000 g for 20 min at 4° C. and the protein concentration was determined by the BCA protein assay (Bio-Rad, Hemel Hempstead, Herts, UK). IL-1β, IL-6, C3 and GDNF in supernatant of brain were detected according to the manufacturer's instruction for ELISA, and the amount of them in each sample in the brain was normalized by its total protein content and was expressed as pg/mg protein.

[2] = tested on: Iba-1; assay: Iba-1 immunofluorescent staining of hippocampus; conditions: young adult mice with exercise and surgery; intraperitoneal valeric acid
Protocol: The immunofluorescent labeling and quantification of the staining were performed as described before. Briefly, brain was fixed in 4% paraformaldehyde at 4° C. for 24 h and then incubated in 30% sucrose over night at 4° C. before being frozen in optimal cutting temperature compound. Coronal 20-μm thick sections were cut sequentially from Bregma -3 to -6 mm by using a cryostat and mounted on microscope slides. After being washed in Tris-buffered saline (TBS), sections were blocked in 10% donkey serum plus 1% bovine serum albumin (BSA) in TBS containing 0. 3% triton-X 100 for 2 h at room temperature and then incubated at 4° C. overnight with the following primary antibodies: rabbit monoclonal anti-C3 antibody (1:50), goat monoclonal anti-GFAP antibody (1:200), rat monoclonal anti-[…] antibody (1:50) and rabbit monoclonal anti-Iba-1 antibody (1:200). Sections were rinsed in TBS with 0.1% Triton-x 100. […] The quantification was performed as described previously. […] The number of pixels per image with intensity above a predetermined threshold level was considered as a positively stained area for an interested marker and quantified using the Image-pro plus 6.0 (Media Cybernetics, Inc., Rockville, MD, USA) and presented as percentage of positive area in the total area. […] All quantitative analyses were performed in a blinded manner.

[3] = tested on: IL-17; assay: ELISA of IL-17 in the serum
Protocol: Mice were weighed and anesthetized with isoflurane at 24 h after MCAO. Blood samples were obtained from the right heart after thoracotomy. Blood was centrifuged (13,000 g, 4° C.) after it had been placed at 4° C. for 2 h for the collection of serum. After the collection of blood, mice were perfused with 4° C. saline for brain tissue harvesting. The cerebral cortex (anteroposterior: −1.5 to 2.5 mm, mediolateral: 1.0 to 3.0 mm) was dissected out. All dissection procedures were performed on ice.
IL-10, IL-17, IL-1β and IL-6 in the serum and brain were detected by using ELISA kits (catalog number: M1000B, M1700, MLB00C and D6050, R&D SYSTEM, Inc., Minneapolis, MN, USA) as we described before. The brain tissues were homogenized on ice in the RIPA buffer containing 25 mM Tris-HCl with pH 7.6, 150 mM NaCl, 1% sodium deoxycholate and 0.1% SDS (catalog number: 89901, Thermo Scientific, Rockford, IL, USA) and a protease inhibitor cocktail containing 10 mg/ml aproteinin, 5 mg/ml peptastin, 5 mg/ml leupetin and 1 mM phenylmethane sulfonylfluoride (catalog number: SRE0055, Sigma-Aldrich, St. Louis, MO, USA). The supernatant was collected for ELISA detection after being centrifuged for 20 min (13,000 g, 4° C.) and the protein concentration was determined by the BCA method. Cytokines in the serum and supernatant of brain were detected according to the manufacturer's instruction. The amount of IL-10, IL-17, IL-1β and IL-6 in each sample in the brain was normalized by its protein content.

## CCCCC(=O)O [valeric acid]
[1]; 9-week old control mice, intraperitoneal valeric acid vs normal saline
  C3 in the brain (hippocampus): increased
[1]; young adult mice with exercise and surgery, intraperitoneal valeric acid
  exercise-induced reduction of C3 in the hippocampus: this reduction was blocked
[2]
  exercise-induced reduction of Iba-1 in the hippocampus: this reduction was blocked
[3]; mice without MCAO, valeric sodium 100 mg/kg intraperitoneal for 7 days
  IL-17 in the blood: increase
[3]; young mice, 100 mg/kg intraperitoneal 1 h before and 6 h after 120-min MCAO, 24 h after MCAO, vs saline
  IL-17 in the blood: increased
